Some results are limits rather than exact numbers.

The nature of assay [1]: Displacement of [3H]flumazenil from GABAA in rat cortical tissue.
Assay [2] deals with Gamma-aminobutyric acid receptor subunit alpha-3 (Rattus norvegicus, UniProt P18508+P20236+P63079). Description: Displacement of [3H]flumazenil in rat GABAA alpha-3-beta-3-gamma-2 receptor expressed in HEK293 cells. Type of assay: cell-based.
The target of assay [3] is GABA A receptor alpha-5/beta-3/gamma-2 (Rattus norvegicus, UniProt P18508+P19969+P63079). Description: Displacement of [3H]flumazenil in rat GABAA alpha-5-beta-3-gamma-2 receptor expressed in HEK293 cells. Type of assay: cell-based.
Chain of GABA A receptor alpha-5/beta-3/gamma-2 (P18508 whole entry): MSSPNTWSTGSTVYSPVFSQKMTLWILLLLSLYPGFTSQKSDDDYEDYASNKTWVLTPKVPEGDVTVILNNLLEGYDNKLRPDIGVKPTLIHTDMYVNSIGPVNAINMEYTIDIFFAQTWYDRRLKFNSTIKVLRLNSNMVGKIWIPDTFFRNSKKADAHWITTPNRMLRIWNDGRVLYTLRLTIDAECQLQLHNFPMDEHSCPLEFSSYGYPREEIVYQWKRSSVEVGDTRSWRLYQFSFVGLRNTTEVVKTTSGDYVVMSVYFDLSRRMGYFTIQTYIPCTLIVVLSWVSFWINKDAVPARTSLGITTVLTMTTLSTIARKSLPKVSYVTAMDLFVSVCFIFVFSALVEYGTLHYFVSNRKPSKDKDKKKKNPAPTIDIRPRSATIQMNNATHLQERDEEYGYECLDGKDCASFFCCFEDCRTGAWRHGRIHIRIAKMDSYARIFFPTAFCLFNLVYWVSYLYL
Chain of GABA A receptor alpha-5/beta-3/gamma-2 (P19969 whole entry): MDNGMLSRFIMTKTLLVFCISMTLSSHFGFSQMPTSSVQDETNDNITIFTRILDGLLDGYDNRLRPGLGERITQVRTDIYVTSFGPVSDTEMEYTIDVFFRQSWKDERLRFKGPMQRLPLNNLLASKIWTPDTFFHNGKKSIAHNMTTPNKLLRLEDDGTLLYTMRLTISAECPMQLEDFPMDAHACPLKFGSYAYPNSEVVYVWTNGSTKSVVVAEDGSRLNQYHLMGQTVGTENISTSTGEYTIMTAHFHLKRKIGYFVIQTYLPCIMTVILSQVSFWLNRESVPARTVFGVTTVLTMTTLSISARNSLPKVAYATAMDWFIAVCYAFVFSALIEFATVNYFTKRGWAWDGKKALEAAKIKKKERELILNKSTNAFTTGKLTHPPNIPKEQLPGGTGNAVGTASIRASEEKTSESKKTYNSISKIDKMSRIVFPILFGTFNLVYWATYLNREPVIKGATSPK
Chain of GABA A receptor alpha-5/beta-3/gamma-2 (P63079 whole entry): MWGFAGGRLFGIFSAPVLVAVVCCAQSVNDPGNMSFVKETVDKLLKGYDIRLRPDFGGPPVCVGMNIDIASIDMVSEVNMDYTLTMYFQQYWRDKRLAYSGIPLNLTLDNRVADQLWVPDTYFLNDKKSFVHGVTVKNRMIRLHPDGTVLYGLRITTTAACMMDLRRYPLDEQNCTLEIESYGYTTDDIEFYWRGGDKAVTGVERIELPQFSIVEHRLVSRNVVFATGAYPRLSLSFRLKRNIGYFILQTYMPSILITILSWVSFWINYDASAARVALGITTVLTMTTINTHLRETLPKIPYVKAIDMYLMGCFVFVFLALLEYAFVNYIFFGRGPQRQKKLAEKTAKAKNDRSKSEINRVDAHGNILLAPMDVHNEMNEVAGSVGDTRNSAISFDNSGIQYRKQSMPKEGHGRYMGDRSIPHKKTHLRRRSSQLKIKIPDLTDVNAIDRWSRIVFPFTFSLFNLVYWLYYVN
Assay [4] is filed under the species Rattus norvegicus. Description: Selectivity ratio of Ki for rat GABAA alpha-2-beta-3-gamma-2 receptor to Ki for GABAA alpha-1-beta-3-gamma-2 receptor.
Assay [5] is filed under the species Rattus norvegicus. The assay can be described thus: Selectivity ratio of Ki for rat GABAA alpha-3-beta-3-gamma-2 receptor to Ki for GABAA alpha-1-beta-3-gamma-2 receptor.
In assay [6] the target is GABA-A receptor; alpha-1/beta-3/gamma-2 (Rattus norvegicus). The assay can be described thus: Displacement of [3H]flumazenil in rat GABAA alpha-1-beta-3-gamma-2 receptor expressed in HEK293 cells.
Assay [7] concerns the target GABA-A receptor; alpha-2/beta-3/gamma-2 (Rattus norvegicus). Description: Displacement of [3H]flumazenil in rat GABAA alpha-2-beta-3-gamma-2 receptor expressed in HEK293 cells.

Chain of Gamma-aminobutyric acid receptor subunit alpha-3 (P20236 whole entry, one chain of several): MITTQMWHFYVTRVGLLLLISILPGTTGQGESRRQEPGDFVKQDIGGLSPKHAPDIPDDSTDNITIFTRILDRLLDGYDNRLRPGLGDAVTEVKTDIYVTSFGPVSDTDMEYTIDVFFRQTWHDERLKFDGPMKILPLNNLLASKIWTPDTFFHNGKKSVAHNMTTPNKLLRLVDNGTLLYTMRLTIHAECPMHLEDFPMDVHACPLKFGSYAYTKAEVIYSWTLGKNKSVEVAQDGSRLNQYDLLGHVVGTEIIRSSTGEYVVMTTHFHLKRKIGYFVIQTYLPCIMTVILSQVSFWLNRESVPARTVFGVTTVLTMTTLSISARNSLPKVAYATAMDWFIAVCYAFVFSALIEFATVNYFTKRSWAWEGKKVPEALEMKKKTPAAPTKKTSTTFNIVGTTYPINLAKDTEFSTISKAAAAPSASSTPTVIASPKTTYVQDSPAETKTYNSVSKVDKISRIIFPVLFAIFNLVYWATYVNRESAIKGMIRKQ

As for `CCc1ccc2oc(-c3ccccc3)cc(=O)c2c1`, in assay [1], affinity was put at a Ki of 180 nM.
Still for that read-out and setting: under `COc1ccc(Br)cc1-c1cc(=O)c2cc(C)ccc2o1` stands greater than 1500 nM.
`Cc1ccc2[nH]c(-c3cc(Cc4ccccc4)ccc3O)cc(=O)c2c1`: the Ki stood at 2 nM in assay [1]; 31 nM in assay [2]; 7.3 nM in assay [3]; 1.2 nM in assay [6]; 18 nM in assay [7]. In addition, the Selectivity ratio in the assay filed under Rattus norvegicus [4] stood at 5; in the assay listed under Rattus norvegicus [5], 8.
Turning to `COc1ccc(Br)cc1-c1cc(=O)c2cc(C)ccc2[nH]1`, the affinity in assay [1] corresponds to a Ki of 730 nM. This lies in the sub-micromolar range.
For `Cc1ccc2nc(-c3cc(Br)ccc3O)cc(N3CCOCC3)c2c1`, affinity in assay [1] was put at a Ki of 840 nM. This Ki and that of the molecule before are within 1.5-fold of each other.
Consider `Cc1ccc2[nH]c(-c3cc(Br)ccc3O)cc(=O)c2c1`, for which affinity in assay [1] was put at a Ki of 22 nM. The results for the Selectivity ratio in the assay filed under Rattus norvegicus [4] and in the assay listed under Rattus norvegicus [5] were 5 and 8, respectively.
Take `Cc1ccc2nc(-c3cc(Br)ccc3O)cc(O)c2c1`: the Ki in assay [2] is 99 nM; in assay [6], 39 nM; in assay [7] it was 120 nM.
In the case of `Cc1ccc2oc(-c3cc(Br)ccc3O)cc(=O)c2c1`, the Ki in assay [1] was 0.9 nM. In addition, the Selectivity ratio was 5 in the assay listed under Rattus norvegicus [4] and 8 in the assay filed under Rattus norvegicus [5].
In turn, `CCc1ccc2[nH]c(-c3ccccc3)cc(=O)c2c1` came in with a Ki in assay [1] of 1200 nM.
As to `Cc1ccc2oc(-c3cc(Cc4ccccc4)ccc3O)cc(=O)c2c1`, the Ki stood at 0.6 nM in assay [1]; 11 nM in assay [2]; 2.4 nM in assay [3]; 0.8 nM in assay [6]; 19 nM in assay [7].
As for `Cc1ccc2nc(-c3cc(Cc4ccccc4)ccc3O)cc(N3CCOCC3)c2c1`, the affinity in assay [1] corresponds to a Ki of 400 nM. This lies in the sub-micromolar range.
The molecule `Cc1ccc2c(c1)c(=O)cc(-c1cc(Br)ccc1O)n2C` had a Ki in assay [1] of 1100 nM. Besides, the figures for the Selectivity ratio in the assay filed under Rattus norvegicus [4] and in the assay filed under Rattus norvegicus [5] were 5 and 8, respectively.

These data come from ChEMBL document CHEMBL1143446, “Azaflavones compared to flavones as ligands to the benzodiazepine binding site of brain GABA(A) receptors” (Bioorg Med Chem Lett, 2008).
